Measurements reported in ChEMBL document CHEMBL5346907, “Discovery of a novel oral type Ⅰ CDK8 inhibitor against acute myeloid leukemia” (Eur J Med Chem, 2023).

Legend:
[1] = molecular target: CDK7/Cyclin H/MNAT1 (Homo sapiens) (UniProt P51946+P50613+P51948); experiment: Inhibition of CDK7/Cyclin H/MAT1 (unknown origin) at 1 uM preincubated for 10 mins followed by substrate addition measured for 60 to 120 mins by HTRF assay relative to control; type: protein-complex assay; details: time 70-130 min
[2] = molecular target: Proto-oncogene tyrosine-protein kinase receptor Ret (Homo sapiens) (UniProt P07949); experiment: Inhibition of RET (unknown origin) at 1 uM preincubated for 10 mins followed by substrate addition measured for 60 to 120 mins by HTRF assay relative to control; details: time 70-130 min
[3] = molecular target: Proto-oncogene tyrosine-protein kinase ROS (Homo sapiens) (UniProt P08922); experiment: Inhibition of ROS (unknown origin) at 1 uM preincubated for 10 mins followed by substrate addition measured for 60 to 120 mins by HTRF assay relative to control; details: time 70-130 min
[4] = molecular target: Cyclin-dependent kinase 8 (Homo sapiens, UniProt P49336); experiment: Binding affinity to CDK8 in human HCT-116 cells assessed as increase in degradation temperature of protein at 5 uM incubated for 6 hrs followed by heating for 4 mins by CETSA assay (reference value: 55 degreeC); type: cell-based; details: time 6.06 hrs
Chain of Cyclin-dependent kinase 8 (P49336 whole entry): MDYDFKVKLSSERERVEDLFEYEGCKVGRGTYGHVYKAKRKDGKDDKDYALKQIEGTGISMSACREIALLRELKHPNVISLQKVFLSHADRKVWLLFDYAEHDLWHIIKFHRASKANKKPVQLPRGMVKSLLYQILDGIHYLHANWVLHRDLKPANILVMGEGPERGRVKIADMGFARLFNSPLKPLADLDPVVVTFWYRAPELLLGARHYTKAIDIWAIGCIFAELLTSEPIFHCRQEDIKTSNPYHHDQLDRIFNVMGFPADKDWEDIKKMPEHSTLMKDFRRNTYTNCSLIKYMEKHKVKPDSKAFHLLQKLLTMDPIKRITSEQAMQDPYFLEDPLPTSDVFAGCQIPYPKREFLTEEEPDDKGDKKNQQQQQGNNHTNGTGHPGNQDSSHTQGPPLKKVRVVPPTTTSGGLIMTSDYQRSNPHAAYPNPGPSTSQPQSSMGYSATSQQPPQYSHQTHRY

[5] = molecular target: Tyrosine-protein kinase ABL1 (Homo sapiens) (UniProt P00519); experiment: Inhibition of ABL1 (unknown origin) at 1 uM preincubated for 10 mins followed by substrate addition measured for 60 to 120 mins by HTRF assay relative to control; details: time 70-130 min
[6] = molecular target: Tyrosine-protein kinase CSK (Homo sapiens) (UniProt P41240); experiment: Inhibition of CSK (unknown origin) at 1 uM preincubated for 10 mins followed by substrate addition measured for 60 to 120 mins by HTRF assay relative to control; details: time 70-130 min
Chain of Tyrosine-protein kinase CSK (Homo sapiens) (P41240 2-450 limits assumed): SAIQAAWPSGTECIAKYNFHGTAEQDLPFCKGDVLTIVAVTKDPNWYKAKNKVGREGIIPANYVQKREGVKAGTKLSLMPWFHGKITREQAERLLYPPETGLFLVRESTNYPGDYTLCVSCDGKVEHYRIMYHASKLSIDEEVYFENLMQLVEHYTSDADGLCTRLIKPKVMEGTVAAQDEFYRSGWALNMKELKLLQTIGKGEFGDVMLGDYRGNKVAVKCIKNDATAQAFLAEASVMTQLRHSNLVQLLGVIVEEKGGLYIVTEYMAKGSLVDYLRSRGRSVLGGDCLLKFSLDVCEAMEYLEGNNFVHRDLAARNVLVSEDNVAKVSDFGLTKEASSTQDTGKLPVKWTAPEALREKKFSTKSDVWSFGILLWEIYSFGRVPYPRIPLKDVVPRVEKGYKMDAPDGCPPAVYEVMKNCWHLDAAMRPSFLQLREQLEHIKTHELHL

[7] = molecular target: Ephrin type-A receptor 3 (Homo sapiens) (UniProt P29320); experiment: Inhibition of EPHA3 (unknown origin) at 1 uM preincubated for 10 mins followed by substrate addition measured for 60 to 120 mins by HTRF assay relative to control; details: time 70-130 min
Chain of Ephrin type-A receptor 3 (Homo sapiens) (P29320 whole entry): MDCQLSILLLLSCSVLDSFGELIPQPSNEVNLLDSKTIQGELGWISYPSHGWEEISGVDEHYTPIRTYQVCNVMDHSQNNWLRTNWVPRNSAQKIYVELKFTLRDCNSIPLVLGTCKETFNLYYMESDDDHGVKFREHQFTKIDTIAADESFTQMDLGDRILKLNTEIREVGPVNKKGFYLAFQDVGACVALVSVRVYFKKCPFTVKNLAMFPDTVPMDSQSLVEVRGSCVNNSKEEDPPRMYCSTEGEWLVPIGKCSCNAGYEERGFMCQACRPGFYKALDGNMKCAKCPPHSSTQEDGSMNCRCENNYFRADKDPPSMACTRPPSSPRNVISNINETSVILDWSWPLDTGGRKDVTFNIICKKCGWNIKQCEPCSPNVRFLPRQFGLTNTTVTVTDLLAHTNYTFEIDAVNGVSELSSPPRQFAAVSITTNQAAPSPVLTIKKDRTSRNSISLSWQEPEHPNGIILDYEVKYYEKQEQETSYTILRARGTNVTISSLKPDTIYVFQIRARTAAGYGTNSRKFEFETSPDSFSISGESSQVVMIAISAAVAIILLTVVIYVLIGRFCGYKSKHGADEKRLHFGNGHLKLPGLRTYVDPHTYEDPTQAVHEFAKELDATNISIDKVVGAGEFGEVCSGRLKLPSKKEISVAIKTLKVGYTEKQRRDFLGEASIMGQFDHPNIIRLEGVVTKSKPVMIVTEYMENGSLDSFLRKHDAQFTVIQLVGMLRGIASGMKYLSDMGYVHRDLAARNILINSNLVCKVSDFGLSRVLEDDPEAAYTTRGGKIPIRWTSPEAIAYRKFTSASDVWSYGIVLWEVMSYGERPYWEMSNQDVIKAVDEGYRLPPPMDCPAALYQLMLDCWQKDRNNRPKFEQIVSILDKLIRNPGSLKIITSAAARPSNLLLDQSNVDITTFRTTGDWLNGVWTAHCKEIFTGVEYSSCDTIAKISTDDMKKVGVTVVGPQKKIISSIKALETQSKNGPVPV

Homo sapiens = species on record: Homo sapiens; experiment: Inhibition of FYN a (unknown origin) at 1 uM preincubated for 10 mins followed by substrate addition measured for 60 to 120 mins by HTRF assay relative to control; details: time 70-130 min
[8] = molecular target: CDK3/Cyclin E (Homo sapiens) (UniProt P24864+Q00526); experiment: Inhibition of CDK3/CyclinE1 (unknown origin) at 1 uM preincubated for 10 mins followed by substrate addition measured for 60 to 120 mins by HTRF assay relative to control; type: protein-complex assay; details: time 70-130 min
[9] = molecular target: Tyrosine-protein kinase Fes/Fps (Homo sapiens) (UniProt P07332); experiment: Inhibition of FES (unknown origin) at 1 uM preincubated for 10 mins followed by substrate addition measured for 60 to 120 mins by HTRF assay relative to control; details: time 70-130 min
Chain of Tyrosine-protein kinase Fes/Fps (Homo sapiens) (P07332 whole entry): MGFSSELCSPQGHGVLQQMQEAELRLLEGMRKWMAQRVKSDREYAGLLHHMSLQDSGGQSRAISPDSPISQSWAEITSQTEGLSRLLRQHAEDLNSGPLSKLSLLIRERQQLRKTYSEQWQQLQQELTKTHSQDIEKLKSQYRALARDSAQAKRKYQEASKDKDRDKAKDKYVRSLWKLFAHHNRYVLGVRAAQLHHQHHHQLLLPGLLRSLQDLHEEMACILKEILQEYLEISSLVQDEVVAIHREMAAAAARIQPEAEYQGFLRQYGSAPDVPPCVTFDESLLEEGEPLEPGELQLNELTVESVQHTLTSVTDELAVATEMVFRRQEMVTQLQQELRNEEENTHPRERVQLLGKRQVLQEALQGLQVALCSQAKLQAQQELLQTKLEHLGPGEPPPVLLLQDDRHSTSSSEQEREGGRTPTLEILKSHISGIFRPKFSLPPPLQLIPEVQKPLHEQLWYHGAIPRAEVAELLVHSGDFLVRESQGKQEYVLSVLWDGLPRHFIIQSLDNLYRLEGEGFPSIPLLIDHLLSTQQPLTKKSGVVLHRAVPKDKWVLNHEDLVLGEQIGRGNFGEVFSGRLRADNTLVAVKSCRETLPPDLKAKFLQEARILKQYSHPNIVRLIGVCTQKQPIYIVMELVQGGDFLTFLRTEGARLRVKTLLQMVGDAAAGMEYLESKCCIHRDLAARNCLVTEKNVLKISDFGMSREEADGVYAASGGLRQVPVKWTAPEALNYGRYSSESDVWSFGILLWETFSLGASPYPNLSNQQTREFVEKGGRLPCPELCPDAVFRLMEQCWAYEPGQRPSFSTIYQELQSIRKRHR

[10] = Cmax in Sprague-Dawley rat at 2 mg/kg, iv; type: ADME, organism-based; set-up: dose 2 mg/kg, route iv; details: in vivo
HL-60 = experiment: Induction of apoptosis in human HL-60 cells assessed as viable cells at 1 uM incubated for 48 hrs by annexin V-FITC/PI staining based flow cytometry (reference value: 96.5 %); type: functional; details: read-out: Activity
[11] = molecular target: Cyclin-dependent kinase 2/cyclin E1 (Homo sapiens, UniProt P24941); experiment: Inhibition of CDK2/Cyclin E1 (unknown origin) preincubated for 10 mins followed by substrate addition measured for 60 to 120 mins by HTRF assay; type: protein-complex assay
[12] = Cmax in Sprague-Dawley rat at 10 mg/kg, po; type: ADME, organism-based; set-up: dose 10 mg/kg, route po; details: in vivo
[13] = molecular target: High affinity nerve growth factor receptor (Homo sapiens) (UniProt P04629); experiment: Inhibition of TRKA (unknown origin) at 1 uM preincubated for 10 mins followed by substrate addition measured for 60 to 120 mins by HTRF assay relative to control; details: time 70-130 min
[14] = molecular target: Insulin receptor (Homo sapiens) (UniProt P06213); experiment: Inhibition of INSR (unknown origin) at 1 uM preincubated for 10 mins followed by substrate addition measured for 60 to 120 mins by HTRF assay relative to control; details: time 70-130 min
Chain of Insulin receptor (Homo sapiens) (P06213 28-758 limits assumed): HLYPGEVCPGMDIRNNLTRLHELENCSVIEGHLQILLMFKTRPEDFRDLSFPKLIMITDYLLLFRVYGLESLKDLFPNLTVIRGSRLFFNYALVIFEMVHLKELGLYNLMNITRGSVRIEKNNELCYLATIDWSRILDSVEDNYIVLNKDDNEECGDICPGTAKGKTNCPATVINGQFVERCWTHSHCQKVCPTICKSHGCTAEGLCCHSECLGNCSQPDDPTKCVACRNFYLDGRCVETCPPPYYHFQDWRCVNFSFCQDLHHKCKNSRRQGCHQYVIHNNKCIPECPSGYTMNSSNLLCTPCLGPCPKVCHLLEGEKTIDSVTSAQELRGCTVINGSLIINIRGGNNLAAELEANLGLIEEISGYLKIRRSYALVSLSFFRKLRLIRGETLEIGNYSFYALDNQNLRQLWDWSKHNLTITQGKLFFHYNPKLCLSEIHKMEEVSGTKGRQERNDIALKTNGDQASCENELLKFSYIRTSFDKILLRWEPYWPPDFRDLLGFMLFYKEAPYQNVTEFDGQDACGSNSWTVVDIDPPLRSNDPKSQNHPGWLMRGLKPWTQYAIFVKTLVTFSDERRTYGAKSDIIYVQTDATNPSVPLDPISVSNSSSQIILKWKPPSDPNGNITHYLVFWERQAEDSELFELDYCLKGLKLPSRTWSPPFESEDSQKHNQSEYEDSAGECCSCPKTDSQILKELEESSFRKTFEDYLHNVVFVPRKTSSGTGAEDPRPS
Chain of Insulin receptor (Homo sapiens) (P06213 763-1382 limits assumed): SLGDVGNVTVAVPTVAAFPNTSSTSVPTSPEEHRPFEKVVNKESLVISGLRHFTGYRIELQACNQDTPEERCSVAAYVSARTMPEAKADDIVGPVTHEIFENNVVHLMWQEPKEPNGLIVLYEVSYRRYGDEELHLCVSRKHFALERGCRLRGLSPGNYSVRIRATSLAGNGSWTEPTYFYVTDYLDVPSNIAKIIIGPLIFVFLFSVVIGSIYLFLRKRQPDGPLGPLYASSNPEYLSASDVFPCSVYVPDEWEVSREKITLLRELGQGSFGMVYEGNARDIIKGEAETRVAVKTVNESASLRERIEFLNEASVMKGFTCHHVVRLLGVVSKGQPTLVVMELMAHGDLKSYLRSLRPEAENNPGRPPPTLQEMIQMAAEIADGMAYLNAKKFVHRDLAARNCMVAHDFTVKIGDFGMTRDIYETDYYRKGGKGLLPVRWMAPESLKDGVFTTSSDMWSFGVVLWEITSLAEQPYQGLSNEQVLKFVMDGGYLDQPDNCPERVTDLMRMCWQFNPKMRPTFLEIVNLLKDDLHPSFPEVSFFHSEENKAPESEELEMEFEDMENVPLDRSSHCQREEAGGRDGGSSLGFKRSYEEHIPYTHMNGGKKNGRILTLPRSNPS

[15] = molecular target: Protein-tyrosine kinase 2-beta (Homo sapiens) (UniProt Q14289); experiment: Inhibition of PYK2 (unknown origin) at 1 uM preincubated for 10 mins followed by substrate addition measured for 60 to 120 mins by HTRF assay relative to control; details: time 70-130 min
Chain of Protein-tyrosine kinase 2-beta (Homo sapiens) (Q14289 whole entry, looked up): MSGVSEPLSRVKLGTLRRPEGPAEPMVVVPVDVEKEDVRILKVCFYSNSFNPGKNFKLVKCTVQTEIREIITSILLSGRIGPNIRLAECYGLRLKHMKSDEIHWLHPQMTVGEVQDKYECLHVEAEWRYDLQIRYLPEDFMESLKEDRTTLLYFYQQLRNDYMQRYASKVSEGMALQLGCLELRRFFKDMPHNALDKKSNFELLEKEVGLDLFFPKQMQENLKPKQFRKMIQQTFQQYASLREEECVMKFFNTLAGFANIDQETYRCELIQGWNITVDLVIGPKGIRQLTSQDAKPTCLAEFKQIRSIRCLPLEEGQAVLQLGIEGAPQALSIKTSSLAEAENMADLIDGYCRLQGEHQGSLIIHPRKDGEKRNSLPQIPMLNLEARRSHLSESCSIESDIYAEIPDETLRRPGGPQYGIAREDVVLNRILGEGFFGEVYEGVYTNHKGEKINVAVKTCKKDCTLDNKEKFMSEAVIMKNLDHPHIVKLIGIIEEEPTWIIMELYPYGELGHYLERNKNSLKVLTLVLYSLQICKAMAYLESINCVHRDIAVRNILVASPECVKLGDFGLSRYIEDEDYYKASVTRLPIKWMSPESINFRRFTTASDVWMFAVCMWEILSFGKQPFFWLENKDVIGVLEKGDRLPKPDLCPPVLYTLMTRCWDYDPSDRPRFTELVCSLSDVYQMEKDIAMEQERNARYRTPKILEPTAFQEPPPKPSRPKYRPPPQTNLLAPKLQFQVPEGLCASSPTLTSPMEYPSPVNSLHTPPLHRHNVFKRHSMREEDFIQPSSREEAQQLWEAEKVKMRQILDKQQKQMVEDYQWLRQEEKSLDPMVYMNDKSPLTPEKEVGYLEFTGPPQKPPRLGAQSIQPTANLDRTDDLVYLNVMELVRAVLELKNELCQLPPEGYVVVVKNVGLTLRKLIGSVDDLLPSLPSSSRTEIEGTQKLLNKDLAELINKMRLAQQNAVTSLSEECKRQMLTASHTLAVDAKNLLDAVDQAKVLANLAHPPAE

Question: What does the source list for `NC(=O)c1cccc(-c2cnc3[nH]ccc3c2)c1`?
Answer: inhibition [1]: 18.9%; inhibition [2]: 23.9%; inhibition [3]: 8.63%; T [4]: 61 °C; inhibition [5]: 0%; inhibition [6]: 0%; inhibition [7]: 0%; inhibition (Homo sapiens): 0%; inhibition [8]: 1.34%; inhibition [9]: 26.7%; Cmax [10]: 231 ng/mL; viability at 1 µM (HL-60): 93.3%; IC50 [11]: > 1 µM; Cmax [12]: 206 ng/mL; inhibition [13]: 13.3%; inhibition [14]: 7.74%; inhibition [15]: 3.1%
